Reference: patent US20220249607A1, “Method of treatment of degenerative diseases caused by membrane channel-forming peptides fragments” (Zarbio, priority 2021, published 2022)
Entries after “also recorded” stand apart in the source; their conditions may differ. Like-named read-outs stand apart in the source and are kept apart here.

Experiments:
[1] = Flow cytometric permeabilization of negatively charged liposomes to calcium; details: for permeabilization of negatively charged liposomes to calcium: phosphatidylserine liposomes, Fluo-3, flow cytometry
Source text: To improve the quantitative aspect of studying the permeabilization of liposomes by […], we developed a flow cytometric technique which allowed us to estimate the number of channel-forming units in the solutions of peptide (Zaretsky and Zaretskaia 2020). This number appears extremely small compared to the total amount of peptide. In model conditions, one channel is formed out of approximately 10^12 molecules of Aβ25-35. The low ratio of channels created by the peptide would not allow for the studying of channel formation using typical methods of protein biology, such as spectroscopy or NMR, for the reason that the signal of interest being too low. Even though the proportion of channels is small, when the peptide was added in micromolar concentrations, thousands of permeabilized vesicles could be observed, which makes the power of channel formation biologically relevant.
(§1) The figure is a composite of data which was presented and analyzed in detail in (Zaretsky and Zaretskaia 2020, Zaretsky and Zaretskaia 2020). Liposomes (400 nm) were made of either phosphatidylserine (A-E, negatively charged lipid) or phosphatidylcholine (F-H, neutral lipid) with added DiD and were extruded in the Ca-free buffer containing 1 mM Fluo-3. After the addition of calcium, aliquots of peptide were added. Ionomycin was used as a positive control. Fluorescence of liposomes was analyzed using a flow cytometer. Each dot at the graph represent a single liposome registered in the flow. The intensity of DiD fluorescence characterizes the amount of membrane material in the liposome, while the fluorescence of Fluo-3 depends on the intraliposomal presence of calcium. […] The liposomes inside rectangle (area R1) are permeabilized, and the number of liposomes which were counted to be within the area is shown.

[2] = Flow cytometric permeabilization of neutral liposomes to calcium; details: phosphatidylcholine liposomes, Fluo-3, flow cytometry
Experimental: as §1

[3] = tested on: Aβ-induced apoptosis in the brain; details: rat brain, cited from earlier work; for effect on Aβ-induced apoptosis (TUNEL) / effect on accumulation of Aβ immunoreactivity / amyloid: simultaneous i.c.v. infusion with Aβ; for effect on apoptosis by the inhibitor itself (spontaneous apoptosis): without Aβ, TUNEL
[4] = target: amyloid channels (Homo sapiens, UniProt P05067); details: cited from earlier work
[5] = tested on: lysosomes of cells loaded with Lucifer Yellow; details: 20 hours incubation; Ji, Miranda et al. 2002; cited from earlier work
[6] = cited from earlier work
[7] = tested on: Aβ1-42-induced drop of cell survival; details: Tizon, Ribe et al. 2010; cited from earlier work
[8] = tested on: 15 cells derived from pancreatic islets of Langerhans; details: cited from earlier work
[9] = tested on: 15 cells derived from pancreatic islets of Langerhans; details: cited from earlier work; for effect on beta-amyloid-induced drop in cell viability: MTT, stated for both cell lines
[10] = tested on: Aβ1-42 toxicity; details: cited from earlier work
[11] = study of Aksenov, Aksenova et al. 1996

Chain of amyloid channels (P05067 672-713 limits assumed): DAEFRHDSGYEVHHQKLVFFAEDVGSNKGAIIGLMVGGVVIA

Molecule: C[C@H](CCC(=O)O)C[C@H](C)C[C@H](C)C(=O)/C=C(\O)[C@H](C)C[C@H](C)C/C=C/[C@@H](C)[C@@H](O)[C@@H](C)[C@@H](O)C[C@@H]1CC[C@@](C)([C@H]2CC[C@@](C)([C@@H](C)O)O2)O1 [ionomycin]
- permeabilization of negatively charged liposomes to calcium [1]: permeabilizes liposomes
- permeabilization of neutral liposomes to calcium [2]: permeabilizes thousands of liposomes

Molecule: CC(=O)N[C@@H](CC(C)C)C(=O)N[C@@H](CC(C)C)C(=O)N[C@H](C=O)CCCNC(=N)N [leupeptin]
- effect on Aβ-induced apoptosis (TUNEL) [3]: promoted apoptosis
- effect on accumulation of Aβ immunoreactivity / amyloid [3]: promoted
- effect on apoptosis by the inhibitor itself (spontaneous apoptosis) [3]: tends to increase apoptosis by itself

Molecule: NC(CO)(CO)CO [tromethamine]
- blockade of smaller amyloid channels ([4]; channels <400 pS): effectively blocked
- blockade of giant amyloid channels ([4]; super-high conductance channels >1 nS): less effective

Molecule: Aβ1-42: full-length amyloid peptide
- permeabilization of negatively charged liposomes to calcium [1]: ineffective in the permeabilization of the membranes; also recorded: does not permeabilize liposomal membranes
- pattern of Lucifer Yellow fluorescence in cells (lysosomal permeabilization) [5]: diffuse intracellular pattern of fluorescence

Molecule: Aβ22-35: longer beta-amyloid fragment without positive overall charge, non-channel-forming (EDVGSNKGAIIGLM; Amyloid-beta protein 42; UniProt P05067 693-706, looked up, fragment)
- permeabilization of negatively charged liposomes to calcium [1]: does not create a noticeable number of channels; also recorded: does not permeabilize liposomes

Molecule: Aβ25-35: positively charged short channel-forming fragment of beta-amyloid (GSNKGAIIGLM; Amyloid-beta protein 42; UniProt P05067 696-706, looked up, fragment)
- number of peptide molecules out of which one channel is formed ([1]; model conditions): approximately 10^12 molecules
- permeabilization of negatively charged liposomes to calcium [1]: creates multiple liposomes permeable to calcium
- permeabilization of neutral liposomes to calcium [2]: does not permeabilize liposomes; also recorded: not permeabilized
- percentage of channels with a conductance ([6]; acidic pH (pH 5.0), 20 μM peptide): more than 30%
- conductance of formed channels ([6]; upper end of conductance): up to 1 nS

Molecule: aprotinin
- effect on Aβ-induced apoptosis (TUNEL) [3]: prevented Aβ-induced apoptosis
- effect on accumulation of Aβ immunoreactivity / amyloid [3]: did not exacerbate intracellular accumulation of amyloid
- effect on apoptosis by the inhibitor itself (spontaneous apoptosis) [3]: tends to decrease even spontaneously occurring apoptosis

B1: cystatin C (protein, UniProt P01034 27-146, looked up)
Cystatin-C: SSPGKPPRLVGGPMDASVEEEGVRRALDFAVGEYNKASNDMYHSRALQVVRARKQIVAGVNYFLDVELGRTTCTKTQPNLDNCPFHDQPHLKRKAFCSFQIYAVPWQGTMTLSKSTCQDA
- effect on drop of cell survival induced by Aβ1-42 [7]: prevented the drop of cell survival

B2: α1-anti-chymotrypsin (protein, UniProt P01011 24-423, looked up)
Alpha-1-antichymotrypsin: HPNSPLDEENLTQENQDRGTHVDLGLASANVDFAFSLYKQLVLKAPDKNVIFSPLSISTALAFLSLGAHNTTLTEILKGLKFNLTETSEAEIHQSFQHLLRTLNQSSDELQLSMGNAMFVKEQLSLLDRFTEDAKRLYGSEAFATDFQDSAAAKKLINDYVKNGTRGKITDLIKDLDSQTMMVLVNYIFFKAKWEMPFDPQDTHQSRFYLSKKKWVMVPMMSLHHLTIPYFRDEELSCTVVELKYTGNASALFILPDQDKMEEVEAMLLPETLKRWRDSLEFREIGELYLPKFSISRDYNLNDILLQLGIEEAFTSKADLSGITGARNLAVSQVVHKAVLDVFEEGTEASAATAVKITLLSALVETRTIVRFNRPFLMIIVPTDTQNIFFMSKVTNPKQA
- effect on amylin-induced drop in cell viability ([8]; MTT, listed as anti-chymotrypsin): prevent amylin-induced cellular toxicity
- effect on amylin-induced drop in cell viability ([8]; MTT, listed as α1-anti-chymotrypsin): prevented
- protection against amylin ([8]; MTT): < 100%
- effect of further increase of concentration on protection against amylin ([8]; above optimal dose): significantly decreased the protective effect
- effect on beta-amyloid-induced drop in cell viability [9]: can protect against Aβ-induced drop in cell viability
- effect on beta-amyloid-induced drop in cell viability ([9]; listed as α1-anti-chymotrypsin): prevented
- effect of further increase of concentration on protection against beta-amyloid ([9]; above optimal dose, both cell lines): disappearance of protection
- protection against beta-amyloid-induced drop in cell viability ([9]; in some conditions, stated for both cell lines (15 cells, cortical cultures)): ≤ 100%
- effect on Aβ1-42 toxicity [10, 11]: attenuated Aβ1-42 toxicity
- effect on fibril formation [10, 11]: without affecting fibril formation
- effect on Aβ toxicity ([10]; study of Ma, Brewer et al. 1996): not effective
